# Source: patent US11505558B1, “Antiviral heterocyclic compounds” (Enanta Pharmaceuticals, Inc., priority 2019, dated 2022)
# Test system: genotype A, "Long" strain RSV
# Test: RSV-A assay (CPE, ATPlite readout in Hep-2 cells)
# Assay type: cell-based
# Details: human respiratory syncytial virus, HEp-2, Hep-2 cells, genotype A "Long" strain RSV, MOI 0.1; read-out: Human RSV-A (“Long” strain) EC50
# Summary of the method: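 Hep-2 cells (8,000/well) received 2-fold serial compound dilutions in duplicate and RSV Long strain at MOI 0.1. After 5 days' incubation, cell health was read as ATP by ATPlite luminescence, with virus-only and uninfected controls defining max and minimum CPE; EC50 reported.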
row,Structure (SMILES),EC50 [nM]
1,Cn1c(=O)[nH]c2cc(C(=O)NC[C@](O)(c3cc4c(c(-c5ccc(F)cc5)n3)OC[C@]4(C)C(N)=O)C(F)(F)F)ccc21 [Example 325],> 200
2,C[C@]1(C(N)=O)COc2c1cc([C@@](O)(CNC(=O)c1ccc(-c3nccs3)c(OC3CC3)c1)C(F)(F)F)nc2-c1ccc(F)cc1 [Example 173],> 200
3,C[C@]1(C(N)=O)COc2c1cc([C@@](O)(CNC(=O)c1cc(OCCO)c3ncccc3c1)C(F)(F)F)nc2-c1ccc(F)cc1 [Example 360],> 200
4,COc1cc(C(=O)NCC(O)(c2cc3c(c(-c4ccc(F)cc4)n2)OC[C@]3(C)CN[C@@H](C)C2CC2)C(F)(F)F)cc2cccnc12 (stereo partly shown) [Example 24],< 200
5,COc1cc(C(=O)NC[C@](O)(c2cc3c(c(-c4ccc(F)cc4)n2)OC[C@]3(C)CNCC2CC2)C(F)(F)F)ccc1OC1CC1 [Example 18],< 200
6,CCc1cnc2c(O)cc(C(=O)NC[C@](O)(c3cc4c(c(-c5ccc(F)cc5)n3)OC[C@]4(C)C(N)=O)C(F)(F)F)cc2c1 [Example 261],< 200
7,"COc1cc(C(=O)NC[C@](O)(c2cc3c(c(-c4ccc(F)cc4)n2)OC[C@]3(C)COC(=O)NC2CC2)C(F)(F)F)ccc1OCCO (single isomer, unassigned) [Example 7]",> 200
8,C[C@]1(C(N)=O)COc2c1cc([C@@](O)(CNC(=O)c1ccc(OC3CC3)c(-c3cncs3)c1)C(F)(F)F)nc2-c1ccc(F)cc1 [Example 129],< 200
9,Cn1ncc2ccc(C(=O)NC[C@](O)(c3cc4c(c(-c5ccc(F)cc5)n3)OC[C@]4(C)C(N)=O)C(F)(F)F)cc21 [Example 300],< 200
10,C[C@]1(C(N)=O)COc2c1cc([C@@](O)(CNC(=O)c1ccc3nc[nH]c3c1)C(F)(F)F)nc2-c1ccc(F)cc1 [Example 291],< 200
11,C[C@]1(C(N)=O)COc2c1cc([C@@](O)(CNC(=O)c1ccnc(C(F)(F)F)n1)C(F)(F)F)nc2-c1ccc(F)cc1 [Example 301],> 200
12,C[C@]1(C(N)=O)COc2c1cc([C@@](O)(CNC(=O)c1cc(OCC(=O)Nc3ccccc3)c3ncccc3c1)C(F)(F)F)nc2-c1ccc(F)cc1 [Example 371],< 200
13,C[C@]1(C(N)=O)COc2c1cc([C@@](O)(CNC(=O)c1ccc(-c3ccc(=O)[nH]c3)c(OC3CC3)c1)C(F)(F)F)nc2-c1ccc(F)cc1 [Example 169],> 200
14,C[C@]1(C(N)=O)COc2c1cc([C@@](O)(CNC(=O)c1ccc(-c3cccc(C(F)(F)F)n3)c(OC3CC3)c1)C(F)(F)F)nc2-c1ccc(F)cc1 [Example 162],> 200
15,C[C@]1(C(N)=O)COc2c1cc([C@@](O)(CNC(=O)c1cnc3cccnc3c1)C(F)(F)F)nc2-c1ccc(F)cc1 [Example 242],> 200
16,C[C@]1(C(N)=O)COc2c1cc([C@@](O)(CNC(=O)c1ccc(-c3ccnc(C(F)(F)F)c3)c(OC3CC3)c1)C(F)(F)F)nc2-c1ccc(F)cc1 [Example 152],> 200
17,CC1(NC(=O)COc2cc(C(=O)NC[C@](O)(c3cc4c(c(-c5ccc(F)cc5)n3)OC[C@]4(C)C(N)=O)C(F)(F)F)cc3cccnc23)CC1 [Example 370],> 200
18,C[C@]1(C(N)=O)COc2c1cc([C@@](O)(CNC(=O)c1ccc(OC3CC3)c(-c3ccnnc3)c1)C(F)(F)F)nc2-c1ccc(F)cc1 [Example 135],< 200
19,COc1cc(C(=O)NC[C@](O)(c2cc3c(c(-c4ccc(F)cc4)n2)OC[C@]3(C)C(N)=O)C(F)(F)F)ccc1-c1cocn1 [Example 199],< 200
20,COc1cc(C(=O)NC[C@](O)(c2cc3c(c(-c4ccc(F)cc4)n2)OC[C@@]3(C)C(N)=O)C(F)(F)F)ccc1OCCF [Example 317],> 200
21,C[C@]1(C(N)=O)COc2c1cc([C@@](O)(CNC(=O)c1cc3cncnc3[nH]1)C(F)(F)F)nc2-c1ccc(F)cc1 [Example 292],> 200
22,C[C@]1(CNCC2CC2)COc2c1cc([C@@](O)(CNC(=O)c1ccc3[nH]c(=O)[nH]c3c1)C(F)(F)F)nc2-c1ccc(F)cc1 [Example 40],> 200
23,COc1cc(C(=O)NC[C@](O)(c2cc3c(c(-c4ccc(F)cc4)n2)OC[C@]3(C)CN[C@@H](C)C2CC2)C(F)(F)F)ccc1OC1CC1 [Example 19],< 200
24,COc1cc(C(=O)NC[C@](O)(c2cc3c(c(-c4ccc(F)cc4)n2)OC[C@]3(C)C(=O)NCC2(C)CC2)C(F)(F)F)cc2cccnc12 [Example 76],< 200
25,COc1cc(C(=O)NC[C@](O)(c2cc3c(c(-c4ccc(F)cc4)n2)OC[C@]3(C)CNC2CC2)C(F)(F)F)ccc1OC1CC1 [Example 17],< 200
26,C[C@]1(C(N)=O)COc2c1cc([C@@](O)(CNC(=O)c1cc3cccnc3[nH]1)C(F)(F)F)nc2-c1ccc(F)cc1 [Example 303],< 200
27,C[C@]1(C(N)=O)COc2c1cc([C@@](O)(CNC(=O)c1ccc(-c3cnccn3)c(OC3CC3)c1)C(F)(F)F)nc2-c1ccc(F)cc1 [Example 166],< 200
28,C[C@]1(C(N)=O)COc2c1cc([C@@](O)(CNC(=O)c1ccc(OC3CC3)c(C3=CCOCC3)c1)C(F)(F)F)nc2-c1ccc(F)cc1 [Example 122],< 200

# The next lines start with the values.
row,EC50 [nM],Structure (SMILES)
1,> 200,COc1cccc(CC(=O)NC[C@](O)(c2cc3c(c(-c4ccc(F)cc4)n2)OC[C@]3(C)C(N)=O)C(F)(F)F)c1 [Example 594]
2,> 200,CC(=O)NCCNC(=O)[C@@]1(C)COc2c1cc([C@@](O)(CNC(=O)c1cc(OC3CC3)c3ncccc3c1)C(F)(F)F)nc2-c1ccc(F)cc1 [Example 454]
3,< 200,Cc1cnc2c(OCC(N)=O)cc(C(=O)NC[C@](O)(c3cc4c(c(-c5ccc(F)cc5)n3)OC[C@]4(C)C(=O)NCC(C)(C)O)C(F)(F)F)cc2c1 [Example 507]
4,> 200,C[C@]1(C(N)=O)COc2c1cc([C@@](O)(CNC(=O)c1cc(Oc3ncccn3)c3ncccc3c1)C(F)(F)F)nc2-c1ccc(F)cc1 [Example 614]
5,> 200,COc1cccc2cc(C(=O)NC[C@](O)(c3cc4c(c(-c5ccc(F)cc5)n3)OC[C@]4(C)C(N)=O)C(F)(F)F)[nH]c12 [Example 603]
6,< 200,COc1cc(C(=O)NC[C@](O)(c2cc3c(c(-c4ccc(F)cc4)n2)NC[C@]3(C)CO)C(F)(F)F)ccc1OCCO [Example 650]
7,< 200,CC(C)(O)CNC(=O)[C@@]1(C)COc2c1cc([C@@](O)(CNC(=O)c1ccc3nc(N)oc3c1)C(F)(F)F)nc2-c1ccc(F)cc1 [Example 498]
8,> 200,COc1ccc(CC(=O)NC[C@](O)(c2cc3c(c(-c4ccc(F)cc4)n2)OC[C@]3(C)C(N)=O)C(F)(F)F)cc1 [Example 593]
9,> 200,COc1cc(C(=O)NC[C@](O)(c2cc3c(c(C#Cc4cccc(Cl)c4F)n2)OC[C@]3(C)C(N)=O)C(F)(F)F)ccc1OC1CC1 [Example 513]
10,< 200,COc1cc(C(=O)NC[C@](O)(c2cc3c(c(-c4ccc(F)cc4)n2)OC[C@]3(C)C(=O)NCCC(C)(C)O)C(F)(F)F)cc2cccnc12 [Example 494]
11,< 200,COc1cc(C(=O)NC[C@](O)(c2cc3c(c(-c4ccc(C)cc4)n2)OC[C@]3(C)C(N)=O)C(F)(F)F)cc2sc(N)nc12 [Example 435]
12,< 200,COc1cc(C(=O)NC[C@](O)(c2cc3c(c(-c4ccc(F)cc4)n2)OCC3(F)C(N)=O)C(F)(F)F)cc2cc(C(F)(F)F)cnc12 (stereo partly shown) [Example 671]
13,> 200,C[C@]1(C(=O)NCCN)COc2c1cc([C@@](O)(CNC(=O)c1cc(OC3CC3)c3ncccc3c1)C(F)(F)F)nc2-c1ccc(F)cc1 [Example 463]
14,> 200,COc1cc(C(=O)NC[C@](O)(c2cc3c(c(-c4ccc(F)cc4)n2)OC[C@@]3(F)C(N)=O)C(F)(F)F)ccc1OC1CC1 [Example 667]
15,< 200,CC(C)(C)NC(=O)[C@@]1(C)COc2c1cc([C@@](O)(CNC(=O)c1cc(OC3CC3)c3ncccc3c1)C(F)(F)F)nc2-c1ccc(F)cc1 [Example 453]
16,< 200,Cc1cc(-c2nc([C@@](O)(CNC(=O)c3ccc4nc(N)sc4c3)C(F)(F)F)cc3c2OC[C@]3(C)C(=O)NCC(C)(C)O)ccc1F [Example 505]
17,> 200,COc1cc(C(=O)NC[C@](O)(c2cc3c(c(C#Cc4ccc(Cl)cc4F)n2)OC[C@]3(C)C(N)=O)C(F)(F)F)ccc1OC1CC1 [Example 514]
18,< 200,C[C@]1(C(N)=O)COc2c1cc([C@@](O)(CNC(=O)c1cc3ccc(Cl)cc3[nH]1)C(F)(F)F)nc2-c1ccc(F)cc1 [Example 605]
19,< 200,C[C@]1(C(N)=O)COc2c1cc([C@@](O)(CNC(=O)c1cc3ccc(F)cc3[nH]1)C(F)(F)F)nc2-c1ccc(F)cc1 [Example 604]
20,> 200,C[C@]1(C(N)=O)COc2c1cc([C@@](O)(CNC(=O)c1cc(NC(=O)C3CNC3)c3ncccc3c1)C(F)(F)F)nc2-c1ccc(F)cc1 [Example 401]
21,> 200,C[C@]1(C(N)=O)COc2c1cc([C@@](O)(CNC(=O)c1cc(OC3(C(N)=O)CC3)c3ncccc3c1)C(F)(F)F)nc2-c1ccc(F)cc1 [Example 381]
22,> 200,CNC(=O)NCCNC(=O)[C@@]1(C)COc2c1cc([C@@](O)(CNC(=O)c1cc(OC3CC3)c3ncccc3c1)C(F)(F)F)nc2-c1ccc(F)cc1 [Example 461]
23,< 200,CNc1nc2ccc(C(=O)NC[C@](O)(c3cc4c(c(-c5ccc(F)cc5)n3)OC[C@]4(C)C(N)=O)C(F)(F)F)cc2s1 [Example 439]
24,< 200,Cc1cnc2c(OC3CC3)cc(C(=O)NC[C@](O)(c3cc4c(c(-c5ccc(F)cc5)n3)OC[C@]4(C)C(=O)NCC(C)(C)O)C(F)(F)F)cc2c1 [Example 499]
25,> 200,Cc1ccc2cc(C(=O)NC[C@](O)(c3cc4c(c(-c5ccc(F)cc5)n3)OC[C@]4(C)C(N)=O)C(F)(F)F)cc(N3CCCC3=O)c2n1 [Example 652]
26,< 200,C[C@]1(C(=O)NCc2ccoc2)COc2c1cc([C@@](O)(CNC(=O)c1cc(OC3CC3)c3ncccc3c1)C(F)(F)F)nc2-c1ccc(F)cc1 [Example 490]
27,< 200,Cc1cnc2c(OCC(F)F)cc(C(=O)NC[C@](O)(c3cc4c(c(-c5ccc(F)cc5)n3)OC[C@]4(C)C(N)=O)C(F)(F)F)cc2c1 [Example 629]
